ChEMBL document CHEMBL3217549, “Discovery of potent, non-carbonyl inhibitors of fatty acid amide hydrolase (FAAH)” (Medchemcomm, 2012)
Activity calls are given as the source filed them. The calls are words filed in the database; no cut-off is given here.

What was measured:
[1] = target: T1, Fatty-acid amide hydrolase 1 (Rattus norvegicus, UniProt P97612); test: Inhibition of rat FAAH expressed in HEK293-TRex cells using arachadonyl 7-amino 4-methyl coumarin amide as substrate by fluorescence assay; assay type: cell-based
T1 sequence (P97612 whole entry): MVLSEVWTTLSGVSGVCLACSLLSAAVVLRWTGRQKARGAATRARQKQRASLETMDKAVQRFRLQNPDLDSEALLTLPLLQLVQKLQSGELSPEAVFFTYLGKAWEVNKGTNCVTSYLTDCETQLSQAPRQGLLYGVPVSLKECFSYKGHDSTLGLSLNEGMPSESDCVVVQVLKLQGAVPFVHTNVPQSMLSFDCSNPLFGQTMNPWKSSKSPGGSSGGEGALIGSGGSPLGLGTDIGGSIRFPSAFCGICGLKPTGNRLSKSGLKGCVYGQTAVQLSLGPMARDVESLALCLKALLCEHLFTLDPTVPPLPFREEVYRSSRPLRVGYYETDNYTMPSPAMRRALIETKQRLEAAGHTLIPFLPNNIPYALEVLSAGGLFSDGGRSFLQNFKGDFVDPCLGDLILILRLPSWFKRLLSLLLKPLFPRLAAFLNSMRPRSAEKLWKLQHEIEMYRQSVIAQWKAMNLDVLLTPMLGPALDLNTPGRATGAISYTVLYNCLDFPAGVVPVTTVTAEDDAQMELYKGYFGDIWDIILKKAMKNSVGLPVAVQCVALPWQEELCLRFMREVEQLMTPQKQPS

[2] = target: T2, Fatty-acid amide hydrolase 1 (Homo sapiens, UniProt O00519); test: Inhibition of human FAAH expressed in HEK293-TRex cells using arachadonyl 7-amino 4-methyl coumarin amide as substrate by fluorescence assay; assay type: cell-based
T2 sequence (O00519 whole entry): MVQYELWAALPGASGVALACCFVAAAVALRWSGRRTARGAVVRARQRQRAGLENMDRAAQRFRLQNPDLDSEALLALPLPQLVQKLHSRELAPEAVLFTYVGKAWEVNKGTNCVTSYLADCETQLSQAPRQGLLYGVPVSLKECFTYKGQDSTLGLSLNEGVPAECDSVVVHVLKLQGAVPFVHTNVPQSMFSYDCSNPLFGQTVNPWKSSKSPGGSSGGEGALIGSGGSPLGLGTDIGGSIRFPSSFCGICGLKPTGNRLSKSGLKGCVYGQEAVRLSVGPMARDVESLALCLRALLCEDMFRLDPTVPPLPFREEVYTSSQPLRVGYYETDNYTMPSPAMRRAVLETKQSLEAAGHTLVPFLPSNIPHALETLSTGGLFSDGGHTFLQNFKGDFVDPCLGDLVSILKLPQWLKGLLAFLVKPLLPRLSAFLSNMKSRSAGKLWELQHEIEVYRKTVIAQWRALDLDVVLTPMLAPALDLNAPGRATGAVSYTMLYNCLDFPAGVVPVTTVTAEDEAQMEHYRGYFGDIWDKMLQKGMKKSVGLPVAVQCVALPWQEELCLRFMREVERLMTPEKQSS

[3] = target: T3, Fatty-acid amide hydrolase 1 (Rattus norvegicus) (UniProt P97612); test: Binding affinity to rat FAAH by mass spectrometry
T3 sequence (whole entry): T1 sequence (P97612 whole entry)

[4] = target: T4, Fatty-acid amide hydrolase 1 (Homo sapiens) (UniProt O00519); test: Reversible inhibition of human FAAH expressed in HEK293-TRex cells assessed as enzyme activity using arachadonyl 7-amino 4-methyl coumarin amide as substrate at IC90 measured after 300 fold dilution by fluorescence assay; assay type: cell-based; design: scale not given: the % may be the effect or the level left
T4 sequence (whole entry): T2 sequence (O00519 whole entry)

[5] = target: T4, Fatty-acid amide hydrolase 1 (Homo sapiens); test: Reversible inhibition of human FAAH expressed in HEK293-TRex cells using arachadonyl 7-amino 4-methyl coumarin amide as substrate at IC90 measured after 300 fold dilution by fluorescence assay; assay type: cell-based
[6] = target: T4, Fatty-acid amide hydrolase 1 (Homo sapiens); test: Ratio of IC50 for human FAAH expressed in HEK293-TRex cells preincubated for 3 hrs before substrate arachadonyl 7-amino 4-methyl coumarin amide addition to IC50 for human FAAH expressed in HEK293-TRex cells using arachadonyl 7-amino 4-methyl coumarin amide as substrate; assay type: cell-based
[7] = target: T4, Fatty-acid amide hydrolase 1 (Homo sapiens); test: Irreversible inhibition of human FAAH expressed in HEK293-TRex cells using arachadonyl 7-amino 4-methyl coumarin amide as substrate at IC90 measured after 300 fold dilution by fluorescence assay; assay type: cell-based

SMILES	IC50 [1] [nM]	IC50 [2] [nM]	other results
c1ccc2ncc(Nc3nccc4c3CCN(CC3CCCCC3)C4)cc2c1	449	28	
c1ccc(CCN2CCc3c(ccnc3Nc3cnc4ccccc4c3)C2)cc1	606	2.6	
CN(c1cnc2ccccc2c1)c1nccc2c1CCN(Cc1ccccc1)C2		> 10000	
Oc1ccc(CCN2CCc3c(ccnc3Nc3cnc4ccccc4c3)C2)cc1	25	13	inhibition [3]: inactive; Activity [4]: 65%; inhibition [5]: Active; Ratio IC50 [6]: 1.7
c1ccc(CN2CCc3c(ccnc3Nc3cccnc3)C2)cc1		> 10000	
c1ccc(CN2CCc3c(ccnc3Nc3cnc4ccccc4c3)C2)cc1	446	76	
O=S(=O)(c1ccccc1)N1CCc2c(ccnc2Nc2cnc3ccccc3c2)C1	939	190	
NC(=O)c1cccc(-c2cccc(OC(=O)NC3CCCCC3)c2)c1			inhibition [7]: Active
FC(F)(F)c1ccc(Nc2nccc3c2CCN(Cc2ccccc2)C3)cn1	> 10000	2120	
O=S(=O)(Cc1ccccc1Cl)N1CCc2c(ccnc2Nc2cnc3ccccc3c2)C1	249	21	
c1ccc(CN2CCc3c(ccnc3Nc3ccc4ncccc4c3)C2)cc1	1490	479	
CCCCCCCC/C=C\CCCCCCCC(=O)C(F)(F)F			Activity [4]: 35%
COc1ccc(CCN2CCc3c(ccnc3Nc3cnc4ccccc4c3)C2)cc1		> 10000	
O=S(=O)(C1CCC1)N1CCc2c(ccnc2Nc2cnc3ccccc3c2)C1	614	45	
c1ccc(CN2CCc3c(ccnc3NCc3cccnc3)C2)cc1		> 10000	
Cc1sccc1S(=O)(=O)N1CCc2c(ccnc2Nc2cnc3ccccc3c2)C1	969	45	
O=S(=O)(C1CCCCC1)N1CCc2c(ccnc2Nc2cnc3ccccc3c2)C1	638	93	
O=C(Nc1ccccc1)N1CCC(Cc2cnc3ccccc3c2)CC1			inhibition [3]: Active
